System: AMPARs
Experiment: Inhibition of native AMPAR responses in cultured hippocampal neurons
Format: cell-based, rat
Conditions: cyclothiazide 10 μM
Protocol: FIGURE 8 The effect of compound 6 on peak and steady-state responses of native NMDARs, AMPARs, and GABARs. (A) Examples of traces obtained from cultured hippocampal neurons. […] Error bars represent SD from five independent measurements. Asterisks mark significance at the level of P < 0.05 (Paired t-test).
FIGURE 9 The effect of compound 6 on native NMDARs, AMPARs, and GABARs. (A) Example of traces obtained from cultured hippocampal neurons. Compound 6 (10 or 30 μM) was co-applied with NMDA (100 μM), AMPA (100 μM), and GABA (5 μM) (duration of agonist and steroid application is indicated by filled and open bars, respectively). […]
Electrophysiological experiments were performed on HEK293 cells transfected with plasmids encoding rat GluN1-1a/GluN2A-D and GFP genes as described previously, ([Petrovic et al., 2005]; [Cais et al., 2008]; [Korinek et al., 2010]) or on primary hippocampal neurons prepared from P0–P1 rats, plated on collagen/poly-D-lysine-coated glass coverslips at a density of ∼50,000 cells/cm^2, and grown in Neurobasal A medium with B27 Supplement (Gibco). […] Agonist-induced responses were low-pass filtered at 2 kHz, digitally sampled at 5 kHz, and analyzed with pClamp software version 10.5 (Molecular Devices). […] Action potentials were recorded in the current-clamp mode from primary hippocampal mass-culture neurons at 14–15 days in vitro. […]

SMILES: C[C@@]12CCC[C@H]1[C@@H]1CC[C@@H]3C[C@H](NC(=O)[C@@H](N)CC(=O)O)CC[C@]3(C)[C@H]1CC2 [Compound 6, (S)-3-amino-4-(((3R,5R,8S,9S,10S,13S,14S)-10,13-dimethylhexadecahydro-1H-cyclopenta[a]phenanthren-3-yl)amino)-4-oxobutanoic acid]
- effect on amplitude of AMPA-induced responses (AMPA 100 μM): only little affected
- potency estimated from few doses (estimated from single dose (30 μM), Hill coefficient fixed at 1.2, 100 μM AMPA, read-out: IC50 at AMPAR responses (estimate)): 276 ± 179 µM
